Reference: publication PMC7481407, “Inhibition of Pendrin by a small molecule reduces Lipopolysaccharide-induced acute Lung Injury” (Theranostics, 2020)

Target: T1, pendrin (Homo sapiens, UniProt O43511)
T1 construct: gene SLC26A4; human wild-type pendrin expressed in human alveolar epithelial cells (hAEC)
T1 sequence (O43511 1-780): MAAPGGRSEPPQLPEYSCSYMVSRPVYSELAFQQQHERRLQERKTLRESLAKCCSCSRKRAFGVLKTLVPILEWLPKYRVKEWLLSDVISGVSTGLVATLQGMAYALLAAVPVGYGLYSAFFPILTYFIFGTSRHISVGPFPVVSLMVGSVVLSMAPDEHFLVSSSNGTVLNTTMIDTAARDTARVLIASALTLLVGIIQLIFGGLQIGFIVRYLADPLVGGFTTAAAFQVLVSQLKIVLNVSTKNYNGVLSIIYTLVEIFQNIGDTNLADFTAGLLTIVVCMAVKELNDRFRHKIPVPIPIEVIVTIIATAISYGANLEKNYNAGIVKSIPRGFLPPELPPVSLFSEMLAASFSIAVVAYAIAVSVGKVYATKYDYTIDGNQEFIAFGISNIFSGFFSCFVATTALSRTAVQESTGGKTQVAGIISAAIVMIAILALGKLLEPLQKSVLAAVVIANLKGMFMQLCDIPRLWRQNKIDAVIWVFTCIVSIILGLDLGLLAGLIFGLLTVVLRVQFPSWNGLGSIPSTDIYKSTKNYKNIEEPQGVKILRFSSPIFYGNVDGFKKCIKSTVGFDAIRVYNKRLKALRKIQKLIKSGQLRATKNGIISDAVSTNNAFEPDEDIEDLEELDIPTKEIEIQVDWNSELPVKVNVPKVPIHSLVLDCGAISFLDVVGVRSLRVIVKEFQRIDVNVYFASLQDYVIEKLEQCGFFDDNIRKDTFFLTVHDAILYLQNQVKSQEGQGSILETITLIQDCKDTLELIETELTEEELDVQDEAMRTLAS
Test: Cl-/SCN- exchange activity assay in pendrin-transfected human alveolar epithelial cells, dose-response
Type: cell-based

## CC(C)(C)c1ccc(C2=N/C(=C/c3cccs3)C(=O)O2)cc1 [YS-01]
  IC50: 4.7 ± 0.82 µM
